From patent US20230248833A1, “COMPOUND HAVING BTK KINASE DEGRADING ACTIVITY, AND PREPARATION METHOD AND PHARMACEUTICAL USE THEREFOR” (SICHUAN HAISCO PHARMACEUTICAL CO., LTD., priority 2020, published 2023)

Legend:
Mino cells = test: Inhibition of cell proliferation, Mino cells (Cell Viability Assay, 72 h); type: cell-based, human; settings: for IC50: Homo sapiens, MINO, 72 h; for Mino Max inhi. %: inhibition rate at the highest concentration of the compound
Procedure: (§1) SU-DHL-4, Mino, and SU-DHL-6 cells, in the culture medium of RPMI1640+10% FBS, were cultured in an incubator at 37° C. under 5% CO2. Cells were plated in a 96-well plate. Specifically, SU-DHL-4 cells were at 20000/well, Mino and SU-DHL-6 cells were at 5000/well, with 90 μL/well. 10 μL of the compounds at different concentrations were added to each well. There were 3 replicate wells for each concentration, and the last column, added with DMSO, was used as a vehicle control group. The cultures were continued for 72 hours at 37° C. under 5% CO2. After 72 hours, 100 μL of detection reagent (Cell Viability Assay, Promega, G7573) was added to each well, and the cultures were uniformly mixed for 2 minutes, and incubated at room temperature for 10 minutes. The […] signal value was measured with a microplate reader (PHERAstar FSX). The IC50 value of the compound on cell proliferation inhibition was calculated using origin9.2 software, and the inhibition rate at the highest concentration of the compound (Max inhi.%) was calculated according to formula (1).
(§2) Max inhi.%=(1−T72administration/T72vehicle)×100 Formula (1).

[1] = Pharmacokinetic experiment in rats; type: in vivo; settings: male, SD, rat, po, plasma, i.g. (20 mg/kg); for AUC(0-t): single dose
Procedure: Experimental objective: In this experiment, a single dose of each test compound was administered to SD rats intravenously and intragastrically, the concentrations of the test compound in plasma of rats were measured, and the pharmacokinetic characteristics and bioavailability of the test compound in rats were evaluated.
Experimental animals: Male SD rats, about 200 g, 6-8 weeks old, 6 rats/compound. Rats were purchased from Hunan SJA Laboratory Animal Co., Ltd, with the laboratory animal production license number of SCXK (Xiang) 2019-004.
Experimental method: On the day of the experiment, 6 SD rats were randomly grouped according to their body weight. The animals were fasted with water available for 12 to 14 hours one day before the administration of a test compound, and were fed 4 hours after the administration.
Before and after the administration, […] of blood was taken from the orbit of the rats under isoflurane anesthesia, and placed in an EDTAK2 centrifuge tube. Centrifugation was carried out at 5000 rpm at 4° C. for 10 min, and the plasma was collected.
Time points for sample collection in G1&G2 groups comprise
Before analysis and detection, all samples were stored at −80° C. The samples were detected by HPLC-MS/MS.

SU-DHL-6 cells = test: Inhibition of cell proliferation, SU-DHL-6 cells (Cell Viability Assay, 72 h); type: cell-based, human; settings: Homo sapiens, SU-DHL-6, 72 h
Procedure: as §1, §2

For `Nc1ncnc2c1c(-c1ccc(Oc3ccccc3)cc1)nn2C1CC2(CCN(C3CN(C4CN(c5ccc6c(c5)C(=O)N(C5CCC(=O)NC5=O)C6=O)C4)C3)CC2)C1` (stereo not drawn) [Compound 65, 5-(3-(2-(4-amino-3-(4-phenoxyphenyl)-1H-pyrazolo[3,4-d]pyrimidin-1-yl)-7-azaspiro[3.5]nonan-7-yl)-[1,3′-biazetidin]-1′-yl)-2-(2,6-dioxopiperidin-3-yl) isoindoline-1,3-dione], which IC50 (Mino cells) is on record?
Its IC50 is 0.014 µM.

Which IC50 (Mino cells) does the source give for `Nc1ncnc2c1c(-c1ccc(Oc3ccccc3)cc1)nn2C1CC2(CCN(C3CC4(CCN(c5ccc6c(c5)C(=O)N(C5CCC(=O)NC5=O)C6=O)CC4)C3)CC2)C1` (stereo not drawn) [Compound 66, 5-(2′-(4-amino-3-(4-phenoxyphenyl)-1H-pyrazolo[3,4-d]pyrimidin-1-yl)-7,7′-diaza[2,7′-bispiro[3.5]nonan]-7-yl)-2-(2,6-dioxopiperidin-3-yl)isoindoline-1,3-dione] here?
The IC50 was 0.027 µM.

For `Nc1ncnc2c1c(-c1ccc(Oc3ccccc3)cc1)nn2C1CCN(C2(C(F)(F)F)CCN(C3CN(c4ccc5c(c4)C(=O)N(C4CCC(=O)NC4=O)C5=O)C3)CC2)CC1` (stereo not drawn) [Compound 70, 5-(3-(4-(4-amino-3-(4-phenoxyphenyl)-1H-pyrazolo[3,4-d]pyrimidin-1-yl)-4′-(trifluoromethyl)-[1,4′-bipiperidin]-1′-yl)azetidin-1-yl)-2-(2,6-dioxopiperidin-3-yl)isoindoline-1,3-dione], which IC50 (Mino cells) is on record?
The IC50 was 0.101 µM.

For `Nc1ncnc2c1c(-c1ccc(Oc3ccccc3)cc1)nn2C1CCN(C2CN(C3CN(C(=O)CC45CC6CC(CC(C6)C4)C5)C3)C2)CC1` [Compound 72, 2-(1-adamantyl)-1-[3-[3-[4-[4-amino-3-(4-phenoxyphenyl)pyrazolo[3,4-d]pyrimidin-1-yl]-1-piperidyl]azetidin-1-yl]azetidin-1-yl]ethanone], which IC50 (Mino cells) is on record?
The IC50 was 0.01 to 1 µM.

And the “Mino Max inhi. %” value (Mino cells)?
The value was 88.5%.

For `Nc1ncnc2c1c(-c1ccc(Oc3ccccc3)cc1)nn2C1CCN(C2CCN(C3CN(C(=O)CC45CC6CC(CC(C6)C4)C5)C3)CC2)CC1` [Compound 73, 2-(1-adamantyl)-1-(3-(4-(4-amino-3-(4-phenoxyphenyl)pyrazolo[3,4-d]pyrimidin-1-yl)-[1,4′-bipiperidin]-1′-yl)azetidin-1-yl)ethan-1-one], which “Mino Max inhi. %” value (Mino cells) is on record?
The value was 99.8%.

For `Nc1ncnc2c1c(-c1ccc(Oc3ccccc3)cc1)nn2C1CCN(C2CN(C(=O)CC34CC5CC(CC(C5)C3)C4)C2)CC1` [Compound 74, 2-((3r,5r,7r)-adamantan-1-yl)-1-(3-(4-(4-amino-3-(4-phenoxyphenyl)-1H-pyrazolo[3,4-d]pyrimidin-1-yl)piperidin-1-yl)azetidin-1-yl)ethanone], which “Mino Max inhi. %” value (Mino cells) is on record?
Its value is 88.3%.

With `Nc1ncnc2c1c(-c1ccc(Oc3ccccc3)cc1)nn2C1CCC2(CC1)CN(C1CN(c3ccc4c(c3)C(=O)N(C3CCC(=O)NC3=O)C4=O)C1)C2` (stereo not drawn) [Compound 75, 5-(3-(7-(4-amino-3-(4-phenoxyphenyl)-1H-pyrazolo[3,4-d]pyrimidin-1-yl)-2-azaspiro[3.5]nonan-2-yl)azetidin-1-yl)-2-(2,6-dioxopiperidin-3-yl)isoindoline-1,3-dione] as the molecule, how does the IC50 (Mino cells) read?
Its IC50 is 0.037 µM.

Which IC50 (Mino cells) does the source give for `Nc1ncnc2c1c(-c1ccc(Oc3ccccc3)cc1)nn2C1CCN(C2CN(C3CN(c4ccc5c(n4)CN(C4CCC(=O)NC4=O)C5=O)C3)C2)CC1` (stereo not drawn) [Compound 76, 3-(2-(3-(4-(4-amino-3-(4-phenoxyphenyl)-1H-pyrazolo[3,4-d]pyrimidin-1-yl)piperidin-1-yl)-[1,3′-biazetidin]-1′-yl)-5-oxo-5,7-dihydro-6H-pyrrolo[3,4-b]pyridin-6-yl)piperidine-2,6-dione] here?
Its IC50 is 0.141 µM.

For `NC(=O)c1c(-c2ccc(Oc3ccccc3)cc2)nn2c1NCC[C@H]2C1CCN(C2CN(CC3CN(c4ccc5c(c4)C(=O)N(C4CCC(=O)NC4=O)C5=O)C3)C2)CC1` (stereo partly drawn) [Compound 80, (7S)-7-(1-(1-((1-(2-(2,6-dioxopiperidin-3-yl)-1,3-dioxoisoindolin-5-yl)azetidin-3-yl)methyl)azetidin-3-yl)piperidin-4-yl)-2-(4-phenoxyphenyl)-4,5,6,7-tetrahydropyrazolo[1,5-a]pyrimidine-3-carboxamide], which “Mino Max inhi. %” value (Mino cells) is on record?
The value was 99.1%.

With `NC(=O)c1c(-c2ccc(Oc3ccccc3)cc2)nn2c1NCC[C@H]2C1CCN(C2CCN(CC3CCN(c4ccc5c(c4)C(=O)N(C4CCC(=O)NC4=O)C5=O)CC3)CC2)CC1` (stereo partly drawn) [Compound 81, (7S)-7-(1′-((1-(2-(2,6-dioxopiperidin-3-yl)-1,3-dioxoisoindolin-5-yl)piperidin-4-yl)methyl)-[1,4′-bipiperidin]-4-yl)-2-(4-phenoxyphenyl)-4,5,6,7-tetrahydropyrazolo[1,5-a]pyrimidine-3-carboxamide] as the molecule, how does the “Mino Max inhi. %” value (Mino cells) read?
Its value is 99.9%.

With `NC(=O)c1c(-c2ccc(Oc3ccccc3)cc2)nn2c1NCC[C@H]2C1CCN(C2CCN(CC3CN(c4ccc5c(c4)C(=O)N(C4CCC(=O)NC4=O)C5=O)C3)CC2)CC1` (stereo partly drawn) [Compound 82, (7S)-7-(1′-((1-(2-(2,6-dioxopiperidin-3-yl)-1,3-dioxoisoindolin-5-yl)azetidin-3-yl)methyl)-[1,4′-bipiperidin]-4-yl)-2-(4-phenoxyphenyl)-4,5,6,7-tetrahydropyrazolo [1,5-a]pyrimidine-3-carboxamide] as the molecule, how does the “Mino Max inhi. %” value (Mino cells) read?
Its value is 99.9%.

With `NC(=O)c1c(-c2ccc(Oc3ccccc3)cc2)nn2c1NCC[C@H]2C1CCN(CC2CCN(c3ccc4c(c3)C(=O)N(C3CCC(=O)NC3=O)C4=O)CC2)CC1` (stereo partly drawn) [Compound 83, (7S)-7-(1-((1-(2-(2,6-dioxopiperidin-3-yl)-1,3-dioxoisoindolin-5-yl)piperidin-4-yl)methyl)piperidin-4-yl)-2-(4-phenoxyphenyl)-4,5,6,7-tetrahydropyrazolo[1,5-a]pyrimidine-3-carboxamide] as the molecule, how does the “Mino Max inhi. %” value (Mino cells) read?
The value was 99.7%.

Which results are given for `Nc1ncnc2c1c(-c1ccc(Oc3ccccc3)cc1)nn2C1CCN(C2CCN(CC3CN(c4ccc5c(c4)C(=O)N(C4CCC(=O)NC4=O)C5=O)C3)CC2)CC1` (stereo not drawn) [Compound 84, 5-(3-((4-(4-amino-3-(4-phenoxyphenyl)-1H-pyrazolo[3,4-d]pyrimidin-1-yl)-[1,4′-bipiperidin]-1′-yl)methyl)azetidin-1-yl)-2-(2,6-dioxopiperidin-3-yl)isoindoline-1,3-dione]?
AUC(0-t) [1]: 0.176 ± 0.057 µg·h/mL; IC50 (Mino cells): 0.032 µM

Which AUC(0-t) [1] does the source give for `Nc1ncnc2c1c(-c1ccc(Oc3ccccc3)cc1)nn2C1CCN(C2CCN(CC3CCN(c4ccc5c(c4)C(=O)N(C4CCC(=O)NC4=O)C5=O)CC3)CC2)CC1` (stereo not drawn) [Compound 86, 5-(4-((4-(4-amino-3-(4-phenoxyphenyl)-1H-pyrazolo[3,4-d]pyrimidin-1-yl)-[1,4′-bipiperidin]-1′-yl)methyl)piperidin-1-yl)-2-(2,6-dioxopiperidin-3-yl)isoindoline-1,3-dione] here?
Its AUC(0-t) is 0.247 ± 0.073 µg·h/mL.

And the IC50 (Mino cells)?
Its IC50 is 0.042 µM.

For `Nc1ncnc2c1c(-c1ccc(Oc3ccccc3)c(F)c1)nn2C1CCN(C2CN(C3CN(c4ccc5c(c4)C(=O)N(C4CCC(=O)NC4=O)C5=O)C3)C2)CC1` (stereo not drawn) [Compound 95, 5-(3-(4-(4-amino-3-(3-fluoro-4-phenoxyphenyl)-1H-pyrazolo[3,4-d]pyrimidin-1-yl)piperidin-1-yl)-[1,3′-biazetidin]-1′-yl)-2-(2,6-dioxopiperidin-3-yl)isoindoline-1,3-dione], which bioavailability ([1]; bioavailability) is on record?
Its bioavailability is 12.3 ± 2.1%.

What about the AUC(0-t) [1] of the same molecule?
The AUC(0-t) was 4.27 ± 0.739 µg·h/mL.

And the IC50 (Mino cells)?
The IC50 was 0.1 µM.

With `Nc1ncnc2c1c(-c1ccc(Oc3ccccc3)c(F)c1)nn2C1CCN(C2CCN(C3CN(c4ccc5c(c4)C(=O)N(C4CCC(=O)NC4=O)C5=O)C3)CC2)CC1` (stereo not drawn) [Compound 96, 5-(3-(4-(4-amino-3-(3-fluoro-4-phenoxyphenyl)-1H-pyrazolo[3,4-d]pyrimidin-1-yl)-[1,4′-bipiperidin]-1′-yl)azetidin-1-yl)-2-(2,6-dioxopiperidin-3-yl)isoindoline-1,3-dione] as the molecule, how does the IC50 (Mino cells) read?
Its IC50 is 0.501 µM.

With `Nc1ncnc2c1c(-c1ccc(Oc3ccccc3)cc1)nn2C1CCN(C2CN(CC3CN(c4cccc5c4C(=O)N(C4CCC(=O)NC4=O)C5=O)C3)C2)CC1` (stereo not drawn) [Compound 105, 4-(3-((3-(4-(4-amino-3-(4-phenoxyphenyl)-1H-pyrazolo[3,4-d]pyrimidin-1-yl)piperidin-1-yl)azetidin-1-yl)methyl)azetidin-1-yl)-2-(2,6-dioxopiperidin-3-yl)isoindoline-1,3-dione] as the molecule, how does the IC50 (SU-DHL-6 cells) read?
Its IC50 is 0.331 µM.

What about the IC50 (Mino cells) of the same molecule?
Its IC50 is 0.208 µM.

For `Nc1ncnc2c1c(-c1ccc(Oc3ccccc3)cc1)nn2C1CCN(C2CN(CC3CN(c4ccc5c(c4)CN(C4CCC(=O)NC4=O)C5=O)C3)C2)CC1` (stereo not drawn) [Compound 107, 3-(5-(3-((3-(4-(4-amino-3-(4-phenoxyphenyl)-1H-pyrazolo[3,4-d]pyrimidin-1-yl)piperidin-1-yl)azetidin-1-yl)methyl)azetidin-1-yl)-1-oxoisoindolin-2-yl)piperidine-2,6-dione], which AUC(0-t) [1] is on record?
The AUC(0-t) was 0.61 ± 0.131 µg·h/mL.
